Measurements taken from patent US8822407B2, “Preparation of conjugates comprising adenine derivatives and allergenic proteins and their use for specific immunotherapy of allengenic diseases” (Universita' Degli Studi di Firenze, priority 2010, dated 2014).

What was measured:
purified B cells = test: B cell activation (tritiated thymidine incorporation); format: cell-based, human
Method: Circulating mononuclear cells (MNC) are isolated by Ficoll-Hypaque density gradient from buffy coats of healthy donors (Servizio Immunotrasfusionale e terapie cellulari, Azienda Ospedaliero Universitaria Pediatrica A. Meyer, Firenze). 200×10^6 MNC are then separated using the commercial CD19 isolation kit (Miltenyi) by the addition of 400 μl iron microbead-bound anti-CD19 monoclonal antibody followed by magnetic separation on LS column. 20×10^6 B cells are isolated by positive selection and are extensively washed by the use of calcium- and magnesium-free PBS and cultured in triplicates at the concentration of 1×10^6/ml/well in complete medium plus 10% foetal calf serum in 96-U plates. […] Plates are incubated in humidified atmosphere at 37° C. for 72 hrs and at the end 0.5 μCi tritiated thymidine is added to each well for further 16 hrs. The incorporated radioactivity is measured as already described in step (f) of Example 4.

TLR9 = target: T1, TLR9 (Homo sapiens, UniProt Q9NR96); test: TLR9-transfected HEK293 cells, NF-kB luciferase reporter; format: cell-based; conditions: CpG-ODN 2006 1.3 μM; data not shown
T1 construct: expressed in transfected cells; host or cells: HEK293 (transient Nucleofection, Amaxa)
T1 sequence (Q9NR96 26-1032): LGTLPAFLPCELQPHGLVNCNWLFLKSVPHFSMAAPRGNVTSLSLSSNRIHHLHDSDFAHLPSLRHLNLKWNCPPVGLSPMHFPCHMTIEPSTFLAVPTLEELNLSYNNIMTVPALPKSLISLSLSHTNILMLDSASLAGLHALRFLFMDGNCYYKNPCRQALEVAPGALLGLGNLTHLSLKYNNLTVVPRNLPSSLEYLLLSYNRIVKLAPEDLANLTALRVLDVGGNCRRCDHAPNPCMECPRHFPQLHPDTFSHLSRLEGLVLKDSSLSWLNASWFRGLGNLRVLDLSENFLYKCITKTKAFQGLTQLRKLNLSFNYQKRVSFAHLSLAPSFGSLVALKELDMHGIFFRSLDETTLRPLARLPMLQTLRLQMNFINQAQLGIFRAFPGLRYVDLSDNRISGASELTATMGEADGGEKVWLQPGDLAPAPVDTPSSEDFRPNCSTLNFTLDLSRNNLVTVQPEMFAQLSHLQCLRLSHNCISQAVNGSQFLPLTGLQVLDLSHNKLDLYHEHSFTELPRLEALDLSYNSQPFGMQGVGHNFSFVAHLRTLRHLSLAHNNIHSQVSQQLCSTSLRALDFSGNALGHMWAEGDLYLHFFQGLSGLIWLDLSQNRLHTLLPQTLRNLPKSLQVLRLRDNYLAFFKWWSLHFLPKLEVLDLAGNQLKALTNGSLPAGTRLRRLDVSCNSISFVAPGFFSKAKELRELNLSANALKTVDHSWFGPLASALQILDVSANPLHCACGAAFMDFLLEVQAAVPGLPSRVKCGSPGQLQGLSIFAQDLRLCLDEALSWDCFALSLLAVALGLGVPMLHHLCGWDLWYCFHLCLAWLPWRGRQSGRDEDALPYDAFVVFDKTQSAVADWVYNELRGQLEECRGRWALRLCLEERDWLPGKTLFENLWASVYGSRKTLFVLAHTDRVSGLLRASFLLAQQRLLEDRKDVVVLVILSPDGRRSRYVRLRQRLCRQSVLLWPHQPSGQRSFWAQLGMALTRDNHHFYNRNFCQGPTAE
Method: (§1) HEK293 cells are detached by trypsin from the plastic surface of the culture bottle, extensively washed with calcium and magnesium-free PBS, counted and adjusted at the concentration 1×10^6 cells/tube in polypropylene V-bottomed tubes. After the final wash, the cells are pelleted and 100 μl transfection buffer (Amaxa) is added together with […], TLR7, TLR8 or TLR9-encoding and ELAM-1 promoter NF-kB luciferase reporter plasmids. The mixture thus obtained is transferred in special cuvettes and transient transfection is obtained in a special apparatus which is able to directly introduce genetic material into the nucleus (Nucleofection®, Amaxa GmbH). The cells are then recovered and cultured at 1×10^5/ml in 48-flat bottomed plates in E-MEM medium plus 5% foetal calf serum for 18 hrs. […] Finally the luciferase activity is measured in the cellular lysates by a commercial kit (Promega).

TLR3 = target: T2, TLR3 (Homo sapiens, UniProt O15455); test: TLR3-transfected HEK293 cells, NF-kB luciferase reporter; format: cell-based; conditions: Poly I:C 50 μg/ml; data not shown
T2 construct: expressed in transfected cells; host or cells: HEK293 (transient Nucleofection, Amaxa)
T2 sequence (O15455 24-904): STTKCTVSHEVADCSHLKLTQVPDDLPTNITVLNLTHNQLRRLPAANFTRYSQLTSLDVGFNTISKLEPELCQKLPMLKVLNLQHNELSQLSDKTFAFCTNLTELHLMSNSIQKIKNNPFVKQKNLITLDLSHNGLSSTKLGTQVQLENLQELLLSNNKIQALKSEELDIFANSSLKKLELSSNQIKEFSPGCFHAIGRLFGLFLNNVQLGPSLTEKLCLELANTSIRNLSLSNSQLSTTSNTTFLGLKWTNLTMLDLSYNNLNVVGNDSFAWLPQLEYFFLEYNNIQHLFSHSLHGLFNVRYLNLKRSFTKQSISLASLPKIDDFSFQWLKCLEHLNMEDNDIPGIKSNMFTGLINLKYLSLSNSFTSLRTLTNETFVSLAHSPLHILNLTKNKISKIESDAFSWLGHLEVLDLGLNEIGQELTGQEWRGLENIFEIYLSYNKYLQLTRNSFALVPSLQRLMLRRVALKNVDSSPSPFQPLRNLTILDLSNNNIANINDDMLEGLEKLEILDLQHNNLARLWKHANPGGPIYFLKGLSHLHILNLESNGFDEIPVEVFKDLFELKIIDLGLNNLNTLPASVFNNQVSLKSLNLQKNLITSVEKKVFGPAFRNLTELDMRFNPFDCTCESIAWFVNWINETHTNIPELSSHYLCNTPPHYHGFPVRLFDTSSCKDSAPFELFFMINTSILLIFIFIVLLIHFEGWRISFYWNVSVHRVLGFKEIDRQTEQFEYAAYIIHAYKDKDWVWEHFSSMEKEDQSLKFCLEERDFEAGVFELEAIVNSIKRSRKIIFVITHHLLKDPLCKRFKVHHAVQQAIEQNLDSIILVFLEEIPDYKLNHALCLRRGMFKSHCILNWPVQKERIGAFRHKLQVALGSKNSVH
Method: as §1

purified CD14+ cells = test: Cytokine production by purified CD14+ cells (ELISA of supernatants, 36 hrs); format: cell-based, human
Method: Circulating mononuclear cells (MNC) are isolated by density gradient (Ficoll-Hypaque) using buffy coats from 14 normal donors (Servizio Immunotrasfusionale e terapie cellulari, Azienda Ospedaliera Universitaria A. Meyer, Firenze). 200×10^6 MNC are separated by the use of a commercial kit (CD14 isolation kit, Miltenyi) by the addition of 400 μl anti-CD14 monoclonal antibody bound to iron beads followed by isolation on magnetic columns (LS column). 50×10^6 monocytes are recovered by positive selection and are extensively washed with calcium and magnesium-free sterile PBS and then seeded in complete medium plus 10% foetal calf serum in 24 flat bottomed plates at the concentration of 1×10^6/ml. […] The plates are incubated for 36 hrs at 37° C. in 5% CO2 humidified atmosphere and the supernatants are collected after centrifugation at 1200 rpm, aliquoted and then stored at −20° C. up to the assay. […]
For the determination of cytokines and chemokines of the innate immunity, commercial ELISAs have been used: IL-12p40 (Cytoscreen, Biosource Int, Camarillo, Calif.), IFN-alfa (Cytoscreen), TNF-alfa (Cytoscreen), IL-10 (Pharmingen), IL-6 and CXCL10 (R&D System). 100 μl/well of single supernatants are incubated in flat bottomed plates as specified by the productors and the amounts of the single cytokines are expressed as pg/ml on the basis of a reference curve by using recombinant cytokines.

BALB/C and C57BL/6 mice = test: Modification of antibody response in sensitized mice (serum IgE); format: in vivo; conditions: mice sensitized i.p. with 10 μg in alum
Method: Ten BALB/C and ten C57BL/6 6-8 wk-old female mice (Charles River) have been intraperitoneally sensitized at day 0 and d 7 with 10 μg OVA (5 animals per strain) or OVA-conj (5 animals per strain) in the presence of alum. At d 14 and d 18 animals are stimulated intratracheally with 10 μg OVA and after 24 hrs unspecific bronchial hyperreactivity is measured administering first an aerosolized PBS solution to obtain the standard value and then an aerosolized solution containing increasing concentrations of methacolin for 3 min (6.25-12.5-25-50 mg/ml). The pletismograph in which the animal is inserted is able to monitor the values of airflow resistance.
Serum levels of total and OVA-specific IgE have been determined at d 14 and d 18 (before the intratracheal allergic stimulation) in sensitized animals by the use of commercial kits.

[1] = Table A, Donor #1, LPS, dose not printed in table (100 ng/ml elsewhere in the source)
[2] = Table A, Donor #2, LPS, dose not printed in table (100 ng/ml elsewhere in the source)
[3] = Table E, Donor #1, dose 0.1 μg/ml
[4] = Table E, Donor #2, dose 0.1 μg/ml

For CpG-ODN 2006 [reference compound], the “Stimulation index (mean ± SE)” value (purified B cells; B cell proliferation, concentration 10 μg/ml) was 90.3 ± 7.5, the “proliferation of purified B lymphocytes (in words)” value (purified B cells; thymidine incorporation) was “high levels of incorporation of radioactive thymidine” and the “NF-κB expression in TLR9-transfected HEK293 cells” value (TLR9) was “able to induce NF-κB expression”.

Poly I:C was tested, and the “NF-κB expression in TLR3-expressing HEK293 cells” value (TLR3) was “activates TLR3-expressing cells”.

“lipopolysaccharide [LPS, reference compound]” showed an IL-6 production (purified CD14+ cells; [1]) of 12905 pg/mL, an IL-10 production (purified CD14+ cells; [1]) of 8140 pg/mL and an IL-12p40 production (purified CD14+ cells; [1]) of 2725 pg/mL. For the same molecule, the TNF-alfa production (purified CD14+ cells; [1]) was 5331 pg/mL, the IL-6 production (purified CD14+ cells; [2]) was 3125 pg/mL and the IL-10 production (purified CD14+ cells; [2]) was 1155 pg/mL. For the same molecule, the IL-12p40 production (purified CD14+ cells; [2]) was 6311 pg/mL, the TNF-alfa production (purified CD14+ cells; [2]) was 4619 pg/mL and the “IL-6 production (mean ± SE)” value (purified CD14+ cells; Table B, dose 1 μg/ml) was 17.5 ± 4.9 ng/mL. For the same molecule, the “IL-10 production (mean ± SE)” value (purified CD14+ cells; Table B, dose 1 μg/ml) was 7.9 ± 1.9 ng/mL, the “IL-12p40 production (mean ± SE)” value (purified CD14+ cells; Table B, dose 1 μg/ml) was 3.8 ± 1.7 ng/mL and the “TNF-alfa production (mean ± SE)” value (purified CD14+ cells; Table B, dose 1 μg/ml) was 7.6 ± 2.7 ng/mL. For the same molecule, the IL-6 production (purified CD14+ cells; [3]) was 27235 pg/mL, the IL-10 production (purified CD14+ cells; [3]) was 530 pg/mL and the IL-12p40 production (purified CD14+ cells; [3]) was 5627 pg/mL. The TNF-alfa production (purified CD14+ cells; [3]) was 3136 pg/mL, the IL-6 production (purified CD14+ cells; [4]) was 39499 pg/mL and the IL-10 production (purified CD14+ cells; [4]) was 3000 pg/mL. For the same molecule, the IL-12p40 production (purified CD14+ cells; [4]) was 10522 pg/mL, the TNF-alfa production (purified CD14+ cells; [4]) was 14061 pg/mL and the “cytokine production from purified CD14+ cells (in words)” value (purified CD14+ cells; text to Tables A and B) was “relevant amounts of modulatory (IL-12) and inflammatory (TNF-alfa and IL-6) cytokines”.

B1: ovalbumin (protein, UniProt P01012 2-386, looked up)
Ovalbumin: GSIGAASMEFCFDVFKELKVHHANENIFYCPIAIMSALAMVYLGAKDSTRTQINKVVRFDKLPGFGDSIEAQCGTSVNVHSSLRDILNQITKPNDVYSFSLASRLYAEERYPILPEYLQCVKELYRGGLEPINFQTAADQARELINSWVESQTNGIIRNVLQPSSVDSQTAMVLVNAIVFKGLWEKAFKDEDTQAMPFRVTEQESKPVQMMYQIGLFRVASMASEKMKILELPFASGTMSMLVLLPDEVSGLEQLESIINFEKLTEWTSSNVMEERKIKVYLPRMKMEEKYNLTSVLMAMGITDVFSSSANLSGISSAESLKISQAVHAAHAEINEAGREVVGSAEAGVDAASVSEEFRADHPFLFCIKHIATNAVLFFGRCVSP
notes: ovalbumin (OVA grade V)
In the case of B1, the “Total IgE (mean ± SE)” value (BALB/C and C57BL/6 mice; d14 pre-challenge) is reported as 966 ± 268 pg/mL and the “Total IgE (mean ± SE)” value (BALB/C and C57BL/6 mice; d18 post-challenge) is reported as 680 ± 234 pg/mL.
